Patent US20220054501A1, “[…] ESTROGEN-RECEPTOR b (ER.beta) POSITIVE BREAST TUMOR” (DCIC Biopharmaceutical Limited, priority 2018, published 2022)

Assays:
[1] = skin penetration on topical administration; settings: topical administration (ointment, lotion or cream)
Source text: After topical administration, the compound(s) penetrate through the skin and concentrate in the fatty tissue.

[2] = test system: ERβ positive breast cancer tumors; experiment: shrinking of breast tumor tissue, topical prodrug (Example 1.1); type: in vivo, human; settings: patients, tumors max 2 cm, after three weeks of treatment
Procedure: 1.1 Patients that were diagnosed (by mammography) with ERβ positive breast cancer tumors with a maximum size of 2 cm were treated with the pharmaceutical composition comprising the prodrug of the present invention: The prodrug was applied topically to the affected breast.

[3] = test system: ER positive breast cancer; experiment: shrinking of breast tumor, 2.5 wt.-% 4-OHA crème (Example 1.2); type: in vivo, human; settings: 4 ml crème with 2.5 wt.-% 4-OHA, 2 times/day, after 3-5 weeks
Procedure: 1.2 Application of 4 ml of a crème (2 times/day) comprising 2.5 wt.-% 4-OHA to a breast suffering from an ER positive breast cancer.

[4] = test system: ERβ positive breast cancer; experiment: treatment success of Anastrozol and Letrozol compared with the topical prodrug (Example 2); type: in vivo, human; settings: for treatment success: patients, treated according to current treatment guidelines
Procedure: Studies were carried out on patients suffering from ERβ positive breast cancer.
First, the patients were treated with non-steroidal aromatase-inhibitors Anastrozol or Letrozol, the treatment was carried out according to the respective current treatment guidelines.
Then, said patients were treated with the pharmaceutical composition comprising the prodrug according to the present invention, that is, the prodrug (4-OHA) was applied topically to the affected breast.

[5] = target: ERβ (Homo sapiens, UniProt Q92731); experiment: binding affinity towards ERβ compared with ERα; settings: fold higher for ERβ
[6] = test system: MDA-MB-231 cells; experiment: inhibition of proliferation of MDA MB-231 cells; type: cell-based, human
Procedure: MDA-MB-231 cell line is a highly aggressive, invasive, and poorly differentiated epithelial human breast cancer cell line. It lacks estrogen receptor a (ERα) and progesterone receptor (PR) expression, as well as HER2 (human epidermal growth factor 2) amplification. MDA-MB-231 cell line is ERβ positive. It is a model cell line for triple negative breast cancer (TNBC) being ERβ positive.
Two different concentrations of MDA-MB-231 cells (1.0e3 and 2.5e3) were incubated with increasing concentrations of 4-OHT (K+; 0.5 μM; 1 μM; 5 μm; 10 μM; 20 μM). The cells were incubated for 6 days (d). Then, absorption at 492 nm was measured.

Sequence of ERβ (Q92731 whole entry): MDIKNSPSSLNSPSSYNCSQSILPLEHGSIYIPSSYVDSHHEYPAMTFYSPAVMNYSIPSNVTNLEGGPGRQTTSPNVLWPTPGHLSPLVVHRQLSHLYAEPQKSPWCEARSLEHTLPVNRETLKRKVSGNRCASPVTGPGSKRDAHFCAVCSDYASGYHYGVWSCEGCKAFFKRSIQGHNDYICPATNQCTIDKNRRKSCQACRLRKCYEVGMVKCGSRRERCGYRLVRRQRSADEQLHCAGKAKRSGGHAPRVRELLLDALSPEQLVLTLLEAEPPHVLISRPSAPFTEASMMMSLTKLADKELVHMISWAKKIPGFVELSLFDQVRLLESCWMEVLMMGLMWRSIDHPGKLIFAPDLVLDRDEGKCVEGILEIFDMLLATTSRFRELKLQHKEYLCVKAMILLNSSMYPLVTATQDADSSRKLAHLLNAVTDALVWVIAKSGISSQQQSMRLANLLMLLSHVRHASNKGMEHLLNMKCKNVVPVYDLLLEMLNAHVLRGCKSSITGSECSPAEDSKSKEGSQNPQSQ

C[C@]12CCC(=O)C(O)=C1CC[C@@H]1[C@@H]2CC[C@]2(C)C(=O)CC[C@@H]12 [4-OHA, 4-hydroxyandrost-4-ene-3,17-dione]
skin penetration capabilities [1]: excellent skin penetration capabilities | tumor size [2]: reduction in tumor size | size of the tumor [3]: significantly decreased | patients with stabilisation of the disease over 6 months ([4]; topical, after unsuccessful Anastrozol or Letrozol treatment): 50%

C[C@]12CC[C@H]3[C@@H](CCC4C(O)C(O)CC[C@@]43C)[C@@H]1CC[C@@H]2O (stereo partly drawn) [4-OHBA, 4-hydroxy-5-alpha-androstane-3-beta,17beta-diol]
affinity towards ERβ relative to affinity towards ERα [5]: about 10 times

C[C@]12CC[C@H]3[C@@H](CCC4=C(O)C(=O)CC[C@@]43C)[C@@H]1CC[C@@H]2O [4-OHT, 4-hydroxytestosterone]
end concentration from which significant inhibition of cell growth takes place ([6]; 6 d incubation, absorption at 492 nm): at least 5 μM/L | inhibition at 5 µM ([6]; Homo sapiens, MDA-MB-231, 144 h, 5 μM/L 4-OHT, cell concentration 1.0e3, 6 d, read-out: inhibition of cell growth): ~50% | inhibition at 20 µM ([6]; Homo sapiens, MDA-MB-231, 144 h, 20 μM/L 4-OHT, 6 d, read-out: inhibition of cell growth): 75 to 80%

CC(C)(C#N)c1cc(Cn2cncn2)cc(C(C)(C)C#N)c1 [Anastrozol]
treatment success [4]: not successful

N#Cc1ccc(C(c2ccc(C#N)cc2)n2cncn2)cc1 [Letrozol]
treatment success [4]: not successful
